According to publication PMC7419507, “In vitro Cas9-assisted editing of modular polyketide synthase genes to produce desired natural product derivatives” (Nature Communications, 2020):
pEC50: −log10 of the molar value. “And” between values parts separate entries of the source, which are not always exact repeats. Identical values can stand only once.

Assays:
[1] = Cytotoxicity assay (CellTiter-Glo, 72 h), SKOV-3; assay type: cell-based, human; settings: human, raw replicate data, read-out: SKOV3 viability (%)
How it was run: (§1)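 1000 cells/well; 4 h settle, then 2-fold serial dilutions (0.5% DMSO final), 72 h, 37 °C/5% CO2. Read-out: CellTiter-Glo luminescence. Media: RPMI1640 + 10% FBS (Jurkat, MESO-1; Jurkat also Glutamax), DMEM + 10% FBS (SKOV-3).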

[2] = tested on: human ovarian adenocarcinoma SKOV-3 cells; experiment: Cytotoxicity assay (CellTiter-Glo, 72 h), SKOV-3; assay type: cell-based; settings: raw replicate data
How it was run: as §1

FKBP12 and mTOR = biological target: T1, FKBP12 and mTOR (Homo sapiens, UniProt P42345+P62942); experiment: Fluoppi analysis: induction of FKBP12-mTOR complex formation in transfected HeLa cells; assay type: cell-based; settings: for Foci intensity: raw data, one replicate per line
T1 construct: host or cells: HeLa cells
How it was run: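 HeLa cells co-transfected with phAG-mTOR and pAsh-FKBP12, seeded 3000 cells/well, then compound-treated 1 h after 24 h at 37 °C. Fixed, Hoechst-stained, imaged by high-content microscopy; foci fluorescence normalized to total cell fluorescence, EC50 computed.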

[3] = Cytotoxicity assay (CellTiter-Glo, 72 h), Jurkat; assay type: cell-based; settings: human, Jurkat cells (T lymphoma), raw data (replicates)
How it was run: as §1

T lymphoma Jurkat cells = experiment: Cytotoxicity assay (CellTiter-Glo, 72 h), Jurkat; assay type: cell-based; settings: raw data (replicates)
How it was run: as §1

T1 sequence (P42345 2025-2114 limits assumed): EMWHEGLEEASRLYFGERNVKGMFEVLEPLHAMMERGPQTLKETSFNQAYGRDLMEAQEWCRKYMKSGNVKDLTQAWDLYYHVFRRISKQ
T1 sequence (P62942 whole entry): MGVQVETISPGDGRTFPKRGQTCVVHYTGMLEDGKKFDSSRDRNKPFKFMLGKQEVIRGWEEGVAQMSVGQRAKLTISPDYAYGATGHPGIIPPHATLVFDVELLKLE

## CO[C@H]1C[C@@H]2CC[C@@H](C)[C@@](O)(O2)C(=O)C(=O)N2CCCC[C@H]2C(=O)O[C@H]([C@H](C)C[C@@H]2CC[C@@H](O)[C@H](OC)C2)CC(=O)[C@H](C)/C=C(\C)[C@@H](O)CC(=O)[C@H](C)C[C@H](C)/C=C/C=C(C)/C=C/1C [Compound 2, 27-demethoxy-19-methyl rapamycin]
[1]; SKOV-3 cells (ovarian adenocarcinoma), conc 9.53674e-5 uM
  viability at 72 h, 9.53674e-05 uM: 94.7%
[1]; SKOV-3 cells (ovarian adenocarcinoma), conc 0.000190735 uM
  viability at 72 h, 0.000190735 uM: 95.8%
[1]; SKOV-3 cells (ovarian adenocarcinoma), conc 0.00038147 uM
  viability at 72 h, 0.00038147 uM: 97.8%
[1]; SKOV-3 cells (ovarian adenocarcinoma), conc 0.000762939 uM
  viability at 72 h, 0.000762939 uM: 98.5%
[1]; SKOV-3 cells (ovarian adenocarcinoma), conc 0.00152588 uM
  viability at 72 h, 0.00152588 uM: 106%
[1]; SKOV-3 cells (ovarian adenocarcinoma), conc 0.00305176 uM
  viability at 72 h, 0.00305176 uM: 97%
[1]; SKOV-3 cells (ovarian adenocarcinoma), conc 0.00610352 uM
  viability at 72 h, 0.00610352 uM: 105%
[1]; SKOV-3 cells (ovarian adenocarcinoma), conc 0.012207 uM
  viability at 72 h, 0.012207 uM: 90.8%
[1]; SKOV-3 cells (ovarian adenocarcinoma), conc 0.0244141 uM
  viability at 72 h, 0.0244141 uM: 96.5%
[1]; SKOV-3 cells (ovarian adenocarcinoma), conc 0.0488281 uM
  viability at 72 h, 0.0488281 uM: 96.1%
[1]; SKOV-3 cells (ovarian adenocarcinoma), conc 0.0976562 uM
  viability at 72 h, 0.0976562 uM: 97.7%
[1]; SKOV-3 cells (ovarian adenocarcinoma), conc 0.195312 uM
  viability at 72 h, 0.195312 uM: 97.9%
[1]; SKOV-3 cells (ovarian adenocarcinoma), conc 0.390625 uM
  viability at 72 h, 0.390625 uM: 98.8%
[1]; SKOV-3 cells (ovarian adenocarcinoma), conc 12.5 uM
  viability at 72 h, 12.5 uM: 91.2%
[1]; SKOV-3 cells (ovarian adenocarcinoma), conc 25 uM
  viability at 72 h, 25 uM: 100%
[1]; SKOV-3 cells (ovarian adenocarcinoma), conc 50 uM
  viability at 72 h, 50 uM: 20.5%
[1]; SKOV-3 ovarian adenocarcinoma cells, conc 0.78125 uM
  viability at 72 h, 0.78125 uM: 93.9%
[1]; SKOV-3 ovarian adenocarcinoma cells, conc 1.5625 uM
  viability at 72 h, 1.5625 uM: 95.7%
[1]; SKOV-3 ovarian adenocarcinoma cells, conc 3.125 uM
  viability at 72 h, 3.125 uM: 102%
[1]; SKOV-3 ovarian adenocarcinoma cells, conc 6.25 uM
  viability at 72 h, 6.25 uM: 102%
[2]; conc 9.53674e-5 uM
  SKOV3 viability (%): 102.9% and 98.3%
[2]; conc 0.000190735 uM
  SKOV3 viability (%): 104.0% and 97.1%
[2]; conc 0.00038147 uM
  SKOV3 viability (%): 97.2% and 104.3%
[2]; conc 0.000762939 uM
  SKOV3 viability (%): 101.6% and 95.9%
[2]; conc 0.00152588 uM
  SKOV3 viability (%): 101.4% and 101.1%
[2]; conc 0.00305176 uM
  SKOV3 viability (%): 96.6% and 99.8%
[2]; conc 0.00610352 uM
  SKOV3 viability (%): 102.9% and 97.3%
[2]; conc 0.012207 uM
  SKOV3 viability (%): 93.7%
[2]; conc 0.0244141 uM
  SKOV3 viability (%): 96.2% and 94.8%
[2]; conc 0.0488281 uM
  SKOV3 viability (%): 100.2% and 102.5%
[2]; conc 0.0976562 uM
  SKOV3 viability (%): 99.8% and 96.7%
[2]; conc 0.195312 uM
  SKOV3 viability (%): 94.3% and 95.1%
[2]; conc 0.390625 uM
  SKOV3 viability (%): 99.5% and 95.3%
[2]; conc 0.78125 uM
  SKOV3 viability (%): 97.2%
[2]; conc 1.5625 uM
  SKOV3 viability (%): 98.7% and 99.8%
[2]; conc 3.125 uM
  SKOV3 viability (%): 98.6% and 90.6%
[2]; conc 6.25 uM
  SKOV3 viability (%): 97.2% and 96.7%
[2]; conc 12.5 uM
  SKOV3 viability (%): 95.5% and 90.7%
[2]; conc 25 uM
  SKOV3 viability (%): 97.5%
[2]; conc 50 uM
  SKOV3 viability (%): 21.5% and 18.1%
FKBP12 and mTOR; Fluoppi
  PPI-inducing (binding enhancing) activity between FKBP12 and mTOR compared with rapamycin (1), in words: relatively weaker activities
FKBP12 and mTOR; Fluoppi, HeLa cells, 1 h treatment, three independent biological replicates, read-out: EC50, induction of the formation of FKBP-mTOR complex
  pEC50: 7.35
FKBP12 and mTOR; conc 9.53674e-5 uM
  Foci intensity: 0.02068 and 0.01364 and 0.008639
FKBP12 and mTOR; conc 0.000190735 uM
  Foci intensity: 0.01744 and 0.007135 and 0.0155
FKBP12 and mTOR; conc 0.00038147 uM
  Foci intensity: 0.04148 and 0.01907 and 0.0147
FKBP12 and mTOR; conc 0.000762939 uM
  Foci intensity: 0.01977 and 0.01076 and 0.01197
FKBP12 and mTOR; conc 0.00152588 uM
  Foci intensity: 0.06388 and 0.02909 and 0.00714
FKBP12 and mTOR; conc 0.00305176 uM
  Foci intensity: 0.01847 and 0.0327 and 0.01128
FKBP12 and mTOR; conc 0.00610352 uM
  Foci intensity: 0.01966 and 0.01473 and 0.01204
FKBP12 and mTOR; conc 0.012207 uM
  Foci intensity: 0.01622 and 0.03454 and 0.02495
FKBP12 and mTOR; conc 0.0244141 uM
  Foci intensity: 0.05679 and 0.05606 and 0.04583
FKBP12 and mTOR; conc 0.0488281 uM
  Foci intensity: 0.1221 and 0.237 and 0.2378
FKBP12 and mTOR; conc 0.0976562 uM
  Foci intensity: 0.306 and 0.2748 and 0.2045
FKBP12 and mTOR; conc 0.195312 uM
  Foci intensity: 0.3211 and 0.3269 and 0.2723
FKBP12 and mTOR; conc 0.390625 uM
  Foci intensity: 0.3599 and 0.2761 and 0.3358
FKBP12 and mTOR; conc 0.78125 uM
  Foci intensity: 0.3175 and 0.3752 and 0.289
FKBP12 and mTOR; conc 1.5625 uM
  Foci intensity: 0.3697 and 0.3114 and 0.3338
FKBP12 and mTOR; conc 3.125 uM
  Foci intensity: 0.3541 and 0.2997 and 0.3309
FKBP12 and mTOR; conc 6.25 uM
  Foci intensity: 0.3255 and 0.2796 and 0.2953
FKBP12 and mTOR; conc 12.5 uM
  Foci intensity: 0.3157 and 0.354 and 0.2564
FKBP12 and mTOR; conc 25 uM
  Foci intensity: 0.3263 and 0.3214 and 0.3499
FKBP12 and mTOR; conc 50 uM
  Foci intensity: 0.3058 and 0.2791 and 0.2528
[3]; conc 9.53674e-5 uM
  viability at 72 h, 9.53674e-05 uM: 101%
[3]; conc 0.000190735 uM
  viability at 72 h, 0.000190735 uM: 101%
[3]; conc 0.00038147 uM
  viability at 72 h, 0.00038147 uM: 105%
[3]; conc 0.000762939 uM
  viability at 72 h, 0.000762939 uM: 110%
[3]; conc 0.00152588 uM
  viability at 72 h, 0.00152588 uM: 104%
[3]; conc 0.00305176 uM
  viability at 72 h, 0.00305176 uM: 96%
[3]; conc 0.00610352 uM
  viability at 72 h, 0.00610352 uM: 102%
[3]; conc 0.012207 uM
  viability at 72 h, 0.012207 uM: 103%
[3]; conc 0.0244141 uM
  viability at 72 h, 0.0244141 uM: 98.4%
[3]; conc 0.0488281 uM
  viability at 72 h, 0.0488281 uM: 101%
[3]; conc 0.0976562 uM
  viability at 72 h, 0.0976562 uM: 98.8%
[3]; conc 0.195312 uM
  viability at 72 h, 0.195312 uM: 97.6%
[3]; conc 0.390625 uM
  viability at 72 h, 0.390625 uM: 103%
[3]; conc 0.78125 uM
  viability at 72 h, 0.78125 uM: 95.4%
[3]; conc 1.5625 uM
  viability at 72 h, 1.5625 uM: 97.9%
[3]; conc 3.125 uM
  viability at 72 h, 3.125 uM: 90.3%
[3]; conc 6.25 uM
  viability at 72 h, 6.25 uM: 93.3%
[3]; conc 12.5 uM
  viability at 72 h, 12.5 uM: 79.6%
[3]; conc 25 uM
  viability at 72 h, 25 uM: 26.4%
[3]; conc 50 uM
  viability at 72 h, 50 uM: 0.7%
T lymphoma Jurkat cells; conc 9.53674e-5 uM
  Jurkat viability (%): 102.6% and 90.2%
T lymphoma Jurkat cells; conc 0.000190735 uM
  Jurkat viability (%): 99.7% and 100.1%
T lymphoma Jurkat cells; conc 0.00038147 uM
  Jurkat viability (%): 102.4% and 92.6%
T lymphoma Jurkat cells; conc 0.000762939 uM
  Jurkat viability (%): 99.9% and 100.9%
T lymphoma Jurkat cells; conc 0.00152588 uM
  Jurkat viability (%): 104.7% and 99.5%
T lymphoma Jurkat cells; conc 0.00305176 uM
  Jurkat viability (%): 96.2% and 98.5%
T lymphoma Jurkat cells; conc 0.00610352 uM
  Jurkat viability (%): 101.1%
T lymphoma Jurkat cells; conc 0.012207 uM
  Jurkat viability (%): 91.7%
T lymphoma Jurkat cells; conc 0.0244141 uM
  Jurkat viability (%): 102.1%
T lymphoma Jurkat cells; conc 0.0488281 uM
  Jurkat viability (%): 95.8% and 99.2%
T lymphoma Jurkat cells; conc 0.0976562 uM
  Jurkat viability (%): 102.7% and 105.1%
T lymphoma Jurkat cells; conc 0.195312 uM
  Jurkat viability (%): 95.3% and 96.4%
T lymphoma Jurkat cells; conc 0.390625 uM
  Jurkat viability (%): 104.4%
T lymphoma Jurkat cells; conc 0.78125 uM
  Jurkat viability (%): 92.4% and 89.9%
T lymphoma Jurkat cells; conc 1.5625 uM
  Jurkat viability (%): 98.7%
T lymphoma Jurkat cells; conc 3.125 uM
  Jurkat viability (%): 91.9% and 84.9%
T lymphoma Jurkat cells; conc 6.25 uM
  Jurkat viability (%): 85.7% and 88.3%
T lymphoma Jurkat cells; conc 12.5 uM
  Jurkat viability (%): 78.8% and 80.3%
T lymphoma Jurkat cells; conc 25 uM
  Jurkat viability (%): 27.8% and 28.9%
